Results as given in patent publication US8178654B2, “Estrogen receptor intramolecular folding systems, estrogen receptor intramolecular folding sensors, methods of use thereof, methods of detecting ER ligands, and methods of detecting ER agonists and antagonists” (Stanford University, priority 2006, dated 2012).

Key:
[1] = target: T1, hER281-549 (human estrogen receptor alpha ligand binding domain amino acids 281-549) (Homo sapiens, UniProt P03372, G400V); assay: Ligand-induced intramolecular folding split RLUC complementation, N-RLUC-hER281-549-C-RLUC in transfected cells; type: cell-based; conditions: for ligand-induced RLUC complementation signal (in words): transfected cells, 1 μM ligand, 18 hours
T1 construct: expressed in transfected cells; host or cells: 293T (transient); also transfected MCF7 and MDA-MB231
T1 sequence (P03372 281-549 G400V): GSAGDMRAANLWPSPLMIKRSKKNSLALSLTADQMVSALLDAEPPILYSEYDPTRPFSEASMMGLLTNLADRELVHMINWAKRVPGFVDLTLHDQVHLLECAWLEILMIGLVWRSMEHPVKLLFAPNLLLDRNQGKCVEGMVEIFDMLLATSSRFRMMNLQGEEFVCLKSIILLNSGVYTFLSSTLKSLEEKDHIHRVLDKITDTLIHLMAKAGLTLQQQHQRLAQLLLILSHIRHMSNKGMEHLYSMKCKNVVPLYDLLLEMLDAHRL
Description: (§1) For transfection, 200 ng DNA/well were used in 12 well culture plates. Volumes of Lipofectamine were as recommended by the manufacturer. The co-transfection of 10 ng/well Fluc DNA served as control for normalizing transfection. The cells were assayed after 18 hours of incubation at 37° C. with 5% CO2. The luminometry assay for Renilla Luciferase activity was performed as per protocol published previously. In brief, the cells were lysed in 200 μl of 1× passive lysis buffer (Promega, Madison, Wis.) by shaking for 15 min at room temperature. The cell lysates were centrifuged for 5 min at 10,000 rpm at 4° C. Twenty μl of supernatants were assayed by adding 1 μg of substrate coelenterazine in 100 μl of 0.05M sodium phosphate buffer (pH 7.0) followed by photon counting in the luminometer (Turner Designs, model T 20/20, Sunnyvale, Calif.) for 10 s. The readings were normalized by measuring the protein concentration in the cell lysates and also by measuring the FLUC activity. Activity of RLUC was represented as normalized relative light units (RLU) per microgram of protein.
The cells were assayed for RLUC activity after 18 hours of incubation. The results were normalized as mentioned in the previous experiments.
The results were normalized as mentioned in the previous experiments.
(§2) The ligand agonists and antagonists specific intramolecular folding were studied in ER positive and negative cell lines. […] The cells exposed to solvent DMSO served as control. The same samples were analysed by Western blot for the detection of the transfected protein level using anti-RLUC antibody using the method mentioned above.

[2] = target: T2, fusion protein N-RLUC-hER281-549-C-RLUC in 293T cells (Homo sapiens, UniProt P03372, G400V); assay: Western blot of sensor fusion protein level in transfected 293T cells (anti-RLUC antibody); type: cell-based; conditions: 1 μM ligand, 18 hours
T2 construct: expressed in transfected cells; host or cells: 293T (transient)
T2 sequence (P03372 281-549 G400V): T1 sequence (P03372 281-549 G400V)
Description: as §2

[3] = target: hERG521R (Homo sapiens, UniProt P03372, G400V/G521R); conditions: mutant human ER
Description: as §1

Chain of hERG521R (P03372 281-595 G400V/G521R): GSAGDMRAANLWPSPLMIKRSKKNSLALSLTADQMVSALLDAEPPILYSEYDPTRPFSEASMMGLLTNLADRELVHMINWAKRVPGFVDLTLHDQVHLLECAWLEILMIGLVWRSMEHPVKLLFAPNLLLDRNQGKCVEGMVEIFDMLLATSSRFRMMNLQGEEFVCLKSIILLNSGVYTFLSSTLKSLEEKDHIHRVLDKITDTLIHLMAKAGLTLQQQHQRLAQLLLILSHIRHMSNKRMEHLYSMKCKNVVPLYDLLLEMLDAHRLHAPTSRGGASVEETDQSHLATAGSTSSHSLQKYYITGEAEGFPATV

Row | Compound | ligand-induced RLUC complementation signal (in words) [1] | expressed fusion (sensor) protein level [2] | further results
1 | O=C(O[C@@H]1Cc2c(O)cc(O)cc2O[C@@H]1c1cc(O)c(O)c(O)c1)c1cc(O)c(O)c(O)c1 [Epigallocatechin gallate] | not significantly different from cells transfected and not exposed to any ligands | significant reduction in the expressed fusion protein levels | –
2 | 4-hydroxytamoxifen | – | – | RLUC complementation at different time points (in words) [1]: significant (P<0.0015) level of RLUC complementation; complemented Renilla Luciferase activity relative to cells before exposed to ligand [1]: 80±15 times; concentration dependence of RLUC activity (in words) [1]: increased RLUC activity; receptor mediated RLUC complementation [3]: 3-5%
3 | COc1cccc2c1C(=O)c1c(O)c3c(c(O)c1C2=O)C[C@@](O)(C(=O)CO)C[C@@H]3O[C@H]1C[C@H](N)[C@H](O)[C@H](C)O1 [Doxirubicin] | not significantly different from cells transfected and not exposed to any ligands | – | –
4 | C[C@]12CC[C@@H]3c4ccc(O)cc4C[C@@H](CCCCCCCCC[S+]([O-])CCCC(F)(F)C(F)(F)F)[C@H]3[C@@H]1CC[C@@H]2O (stereo partly shown) [ICI182,780] | – | no significant level of degradation | –
5 | N.N.[Cl][Pt][Cl] [Cisplatinum] | not significantly different from cells transfected and not exposed to any ligands | significant reduction in the expressed fusion protein levels | –
